Experimental data published in patent US8598145B2, “Mitochondrially delivered anti-cancer compounds” (priority 2008, dated 2013).

Columns and labels:
breast carcinomas = assay: Spontaneous ductal breast carcinomas in transgenic mice (FIG. 9); type: in vivo, FVB/N c-neu mice
Protocol: The transgenic FVB/N c-neu female mice with spontaneous small breast carcinomas were treated with MitoVES at 3 μmol per mouse per dose and the tumour volume was assessed by repeated ultrasound imaging, monitoring tumour growth over several weeks.
For this purpose, the transgenic FVB/N c-neu mice that form spontaneous ductal breast carcinomas due to high level of expression of the oncogene, HER2 were used as a cancer model.

[1] = tested on: Ras-transformed B9 cells with a defective Complex II; assay: Apoptosis in Ras-transformed B1 and B9 cells (FIG. 4C); type: cell-based, Chinese hamster
Protocol: 4C—After 24 h of treatment with Complex II targeting drugs TTFA or MitoVES, Ras transformed B1 and B9 cells were assessed for apoptosis using the Annexin V binding method.
The following cell lines used in this study were obtained from ATCC, unless specified otherwise: Human T lymphoma cells Jurkat, human mesothelioma cells Meso-I, MM-BI, Ist-Mes, Ist-Mes-2 (Pass, H. I. et al. Characteristics of nine newly derived mesothelioma cell lines. Ann. Thorac. Surg. 59, 835-844 (1995)), human breast cancer cells MCF-7 (erbB2-low) and MDA-MB-453 (erbB2-high), human colorectal cells HCT-116, human hepatocarcinoma cells Huh-7, mouse mesothelioma cells AE17 (Jackaman, C. et al. IL-2 intratumoral immunotherapy enhances CD8+ T cells that mediate destruction of tumor cells and tumor-associated vasculature: a novel mechanism for IL-2. J. Immunol. 171, […] (2003), human non-malignant mesothelial cells Met-5A, […] (Claycomb, W. C. et al. HL-1 cells: a cardiac muscle cell line that contracts and retains phenotypic characteristics of the adult cardiomyocyte. Proc. Natl. Acad. Sci. USA 95, 2979-2984 […]) and H9c2, and the human endothelial-like cells EAhy926 (Edgell, C. J., McDonald, C. C. & Graham, J. B. Permanent cell line expressing human factor VIII-related antigen established by hybridization. Proc. Natl. Acad. Sci. USA 80, 3734-3737 (1983)). Jurkat cells were grown in the RPMI medium while DMEM was used for other malignant cell lines and for Met-5A cells, supplemented with 10% FCS and antibiotics. HL-1 cells, maintained in fibronectin/gelatine-coated dishes, were grown in the Claycomb medium supplemented with noradrenalin (Claycomb, W. C. et al. HL-1 cells: a cardiac muscle cell line that contracts and retains phenotypic characteristics of the adult cardiomyocyte. Proc. Natl. Acad. Sci. USA 95, 2979-2984 […]), EAhy926 cells were grown in complete DMEM supplemented with HAT (Edgell, C. J., McDonald, C. C. & Graham, J. B. Permanent cell line expressing human factor VIII-related antigen established by hybridization. Proc. Natl. Acad. Sci. USA 80, 3734-3737 (1983)). Cells deficient in mtDNA (ρ^0 phenotype) were prepared as detailed in Weber, T. et al., (Mitochondria play a central role in apoptosis induced by α-tocopheryl succinate, an agent with anticancer activity. Comparison with receptor-mediated pro-apoptotic signaling. Biochemistry 42, 4277-4291 (2003)). Acquisition of the ρ^0 phenotype was confirmed by lack of expression by the cells of the mtDNA-encoded cytochrome c oxidase subunit II (COXII not shown). […]

EAhy926 cells = conditions: level taken from Dong et al, Cancer Res 2007; cited from earlier work

SMILES | progression of breast cancer tumours (breast carcinomas; 3 μmol per mouse per dose, tumour volume by ultrasound imaging) | toxicity in treated animals (breast carcinomas; FVB/N c-neu mice) | fold lower concentrations than needed for corresponding activity of α-TOS (breast carcinomas; relative to α-TOS) | sensitivity to apoptosis of Ras-transformed B9 cells compared to Ras-transformed B1 cells ([1]; 24 h treatment, Annexin V binding) | sensitivity after reconstitution of Complex II function (human SDHC) in Ras-transformed B9 cells ([1]; B9 cells transfected to express human SDHC) | concentration needed for comparable levels of effects on endothelial cells (EAhy926 cells)
Cc1c(C)c2c(c(C)c1OC(=O)CCC(=O)[O-])CCC(C)(CCCCCCCCCCC[P+](c1ccccc1)(c1ccccc1)c1ccccc1)O2 (stereo not drawn) [MitoVE11S] | completely blocked progression | no obvious sign of toxicity | ~10 fold | much less sensitive | restored the sensitivity | 
Cc1c(C)c2c(c(C)c1OC(=O)CCC(=O)O)CC[C@@](C)(CCC[C@H](C)CCC[C@H](C)CCCC(C)C)O2 [α-TOS, α-tocopheryl succinate, reference compound] |  |  |  |  |  | 25 to 50 µM
